We go through 17 compounds from patent publication US20250250287A1, “HETEROCYCLIC COMPOUNDS, COMPOSITIONS THEREOF, AND METHODS OF TREATMENT THEREWITH” (BeiGene Switzerland GmbH, priority 2022, published 2025).

Structures are written as SMILES.

The test system of the test is pERK1/2(THR202/TYR204) level in SW620 cell line (KRAS G12V). The experiment in a line: KRAS G12V pERK assay (HTRF) in SW620 cell line. The format is cell-based. The note with it: Homo sapiens, SW-620, 2 h, SW620 cells, 2 hrs compound treatment. The protocol:
SW620 cell line was used in this study. Cells were maintained in RPMI 1640 supplemented with 10% fetal bovine serum (Thermo Fisher), 50 units/mL penicillin and streptomycin (Thermo Fisher) and kept at 37° C. in a humidified atmosphere of 5% CO2 in air. Cells were reinstated from frozen stocks that were laid down within 30 passages from the original cells purchased. 40000 cells per well were seeded into a 96-well plate and incubated overnight. Cells were treated with a 10-point dilution series. The final compound concentration is from 0 to 10 μM. After 2 hrs compound treatment, cells were lysed, and the pERK1/2(THR202/TYR204) level in the cell lysates was detected by HTRF kit (Cisbio). In brief, a total of 16 μL of cell lysate from each well of a 96-well plate was transferred to a 384-well white assay plate. Lysate from each well was incubated with 2 μL of Eu3+-cryptate (donor) labeled anti-phospho-ERK1/2 and 2 μL of D2 (acceptor) labeled anti-phospho-ERK1/2 antibodies (Cisbio) overnight in dark at room temperature. When donor and acceptor are in close proximity, excitation of the donor with laser triggers a Fluorescence Resonance Energy Transfer (FRET) towards the acceptor, which in turn fluoresces at 655 nm wavelength. FRET signals were measured using a PHERAstar FSX reader (BMG Labtech). IC50 determination was performed by fitting the curve of percent inhibition versus the log of the inhibitor concentration using Dotmatics.
In general terms: In TR-FRET formats the signal depends on donor and acceptor labels being close together.
The IC50 is the concentration needed to halve the response being measured. A higher IC50 goes with a need for much substance. In the case of `CC1Oc2nc(-c3cc(N)cc(Cl)c3C(F)(F)F)c(F)c3nc(OC[C@@]45CCCN4C[C@H](F)C5)nc(c23)N2CCC[C@@H]12` (stereo partly drawn) [Example 24, 3-chloro-5-((11aS)-7-fluoro-5-(((2R,7aS)-2-fluorotetrahydro-1H-pyrrolizin-7a(5H)-yl)methoxy)-11-methyl-2,3,11,11a-tetrahydro-1H-10-oxa-3a,4,6,9-tetraazanaphtho[1,8-ef]azulen-8-yl)-4-(trifluoromethyl)aniline], inhibition was half-maximal at 121 nM (IC50).

In turn, `C#Cc1c(F)ccc2cc(O)cc(-c3cc4c5c(nc(OC[C@@]67CCCN6C[C@H](F)C7)nc5c3F)N3CCCCC3CCO4)c12` (stereo partly drawn) [Example 6, 5-ethynyl-6-fluoro-4-(1-fluoro-13-(((2R,7aS)-2-fluorotetrahydro-1H-pyrrolizin-7a(5H)-yl)methoxy)-6,6a,7,8,9,10-hexahydro-5H-pyrido[1′,2′:5,6][1,5]oxazocino[4,3,2-de]quinazolin-2-yl)naphthalen-2-ol] yielded an IC50 of 271 nM.

Regarding `C#Cc1c(F)ccc2cc(O)cc(-c3nc4c5c(nc(OC[C@@]67CCCN6C[C@H](F)C7)nc5c3F)N3CCCC[C@H]3[C@H](C)O4)c12` [Example 34, 5-ethynyl-6-fluoro-4-((5S,5aS)-1-fluoro-11-(((2R,7aS)-2-fluorotetrahydro-1H-pyrrolizin-7a(5H)-yl)methoxy)-5-methyl-5,5a,6,7,8,9-hexahydro-4-oxa-3,9a,10,12-tetraazabenzo[4,5]cyclohepta[1,2,3-de]naphthalen-2-yl)naphthalen-2-ol], the IC50 was 10 nM.

As for `C#Cc1c(F)ccc2cc(O)cc(-c3nc4c5c(nc(OC[C@@]67CCCN6C[C@H](F)C7)nc5c3F)N3[C@H](CO4)C[C@@H]4C[C@@H]43)c12` [Example 32, 5-ethynyl-6-fluoro-4-((5aS,6aS,7aS)-1-fluoro-9-(((2R,7aS)-2-fluorotetrahydro-1H-pyrrolizin-7a(5H)-yl)methoxy)-5,5a,6,6a,7,7a-hexahydro-4-oxa-3,7b,8,10-tetraazacyclopropa[a]naphtho[1,8-gh]azulen-2-yl)naphthalen-2-ol], the IC50 is 26 nM.

For the compound `N#Cc1c(N)sc2c(F)ccc(-c3c(Cl)c4c5c(nc(OC[C@@]67CCCN6C[C@H](F)C7)nc5c3F)N3CCC(C#N)C[C@H]3CO4)c12` (stereo partly drawn) [Example 30, (8aS)-5-(2-amino-3-cyano-7-fluorobenzo[b]thiophen-4-yl)-6-chloro-4-fluoro-2-(((2R,7aS)-2-fluorotetrahydro-1H-pyrrolizin-7a(5H)-yl)methoxy)-8,8a,9,10,11,12-hexahydropyrido[2′,1′:3,4][1,4]oxazepino[5,6,7-de]quinazoline-10-carbonitrile], the IC50 amounted to 51 nM.

Compound `N#Cc1c(N)sc2c(F)ccc(-c3cc4c5c(nc(OC[C@@]67CCCN6C[C@H](F)C7)nc5c3F)N3CCC[C@H]3CO4)c12` [Example 1, 2-amino-7-fluoro-4-((S)-4-fluoro-2-(((2R,7aS)-2-fluorotetrahydro-1H-pyrrolizin-7a(5H)-yl)methoxy)-8a,9,10,11-tetrahydro-8H-pyrrolo[2′,1′:3,4][1,4]oxazepino[5,6,7-de]quinazolin-5-yl)benzo[b]thiophene-3-carbonitrile] came in with an IC50 of 290 nM.

In the case of `Nc1cc(Cl)c(C(F)(F)F)c(-c2nc3c4c(nc(OC[C@@]56CCCN5C[C@H](F)C6)nc4c2F)N2CCCCCC2CO3)c1` (stereo partly drawn) [Example 25, 3-chloro-5-(1-fluoro-12-(((2R,7aS)-2-fluorotetrahydro-1H-pyrrolizin-7a(5H)-yl)methoxy)-5a,6,7,8,9,10-hexahydro-5H-4-oxa-3,10a,11,13-tetraazanaphtho[1,8-ab]heptalen-2-yl)-4-(trifluoromethyl)aniline], the IC50 is 53 nM.

In the case of `Nc1cc(Cl)c(C(F)(F)F)c(-c2nc3c4c(nc(OC[C@@]56CCCN5C[C@H](F)C6)nc4c2F)N2CCC[C@@H]2CCO3)c1` [Example 11, 3-chloro-5-((R)-7-fluoro-5-(((2R,7aS)-2-fluorotetrahydro-1H-pyrrolizin-7a(5H)-yl)methoxy)-1,2,3,11,12,12a-hexahydro-10-oxa-3a,4,6,9-tetraazacyclopenta[4,5]cycloocta[1,2,3-de]naphthalen-8-yl)-4-(trifluoromethyl)aniline], the concentration for half-maximal inhibition (IC50) was 66 nM.

The compound `C[C@@H]1Oc2nc(-c3cc(N)cc(Cl)c3C(F)(F)F)c(F)c3nc(OC[C@@]45CCCN4C[C@H](F)C5)nc(c23)N2CCCC[C@@H]12` [Example 33, 3-chloro-5-((5S,5aS)-1-fluoro-11-(((2R,7aS)-2-fluorotetrahydro-1H-pyrrolizin-7a(5H)-yl)methoxy)-5-methyl-5,5a,6,7,8,9-hexahydro-4-oxa-3,9a,10,12-tetraazabenzo[4,5]cyclohepta[1,2,3-de]naphthalen-2-yl)-4-(trifluoromethyl)aniline] returned an IC50 of 43 nM.

Consider `N#Cc1c(N)sc2c(F)ccc(-c3c(Cl)c4c5c(nc(OC[C@@]67CCCN6C[C@H](F)C7)nc5c3F)N3C[C@H](O)C[C@H]3CO4)c12` [Example 29, 2-amino-4-((2R,12aS)-10-chloro-8-fluoro-6-(((2R,7aS)-2-fluorotetrahydro-1H-pyrrolizin-7a(5H)-yl)methoxy)-2-hydroxy-2,3,12,12a-tetrahydro-1H-pyrrolo[2′,1′:3,4][1,4]oxazepino[5,6,7-de]quinazolin-9-yl)-7-fluorobenzo[b]thiophene-3-carbonitrile], for which the IC50 is 91 nM.

With `N#Cc1c(N)sc2c(F)ccc(-c3c(Cl)c4c5c(nc(OC[C@@]67CCCN6C[C@H](F)C7)nc5c3F)N3CCC[C@H]3CO4)c12` [Example 27, 2-amino-4-((S)-10-chloro-8-fluoro-6-(((2R,7aS)-2-fluorotetrahydro-1H-pyrrolizin-7a(5H)-yl)methoxy)-2,3,12,12a-tetrahydro-1H-pyrrolo[2′,1′:3,4][1,4]oxazepino[5,6,7-de]quinazolin-9-yl)-7-fluorobenzo[b]thiophene-3-carbonitrile], the half-inhibitory concentration (IC50) came to 31 nM.

With `Cc1cc(N)cc(-c2nc3c4c(nc(OC[C@@]56CCCN5C[C@H](F)C6)nc4c2F)N2CCC[C@@H]2CCO3)c1C(F)(F)F` [Example 12, 3-((R)-7-fluoro-5-(((2R,7aS)-2-fluorotetrahydro-1H-pyrrolizin-7a(5H)-yl)methoxy)-1,2,3,11,12,12a-hexahydro-10-oxa-3a,4,6,9-tetraazacyclopenta[4,5]cycloocta[1,2,3-de]naphthalen-8-yl)-5-methyl-4-(trifluoromethyl)aniline], the midpoint of inhibition, the IC50, lay at 56 nM.

Turning to `N#Cc1c(N)sc2c(F)ccc(-c3c(Cl)c4c5c(nc(OC[C@@]67CCCN6C[C@H](F)C7)nc5c3F)N3CC[C@@H](O)C[C@H]3CO4)c12` [Example 31, 2-Amino-4-((8aS,10R)-6-chloro-4-fluoro-2-(((2R,7aS)-2-fluorotetrahydro-1H-pyrrolizin-7a(5H)-yl)methoxy)-10-hydroxy-8,8a,9,10,11,12-hexahydropyrido[2′,1′:3,4][1,4]oxazepino[5,6,7-de]quinazolin-5-yl)-7-fluorobenzo[b]thiophene-3-carbonitrile], the IC50 was 56 nM.

In the case of `C#Cc1c(F)ccc2cc(O)cc(-c3nc4c5c(nc(OC[C@@]67CCCN6C[C@H](F)C7)nc5c3F)N3C[C@@H](O)CC[C@H]3CO4)c12` [Example 35, (5aS,8S)-2-(8-ethynyl-7-fluoro-3-hydroxynaphthalen-1-yl)-1-fluoro-11-(((2R,7aS)-2-fluorotetrahydro-1H-pyrrolizin-7a(5H)-yl)methoxy)-5,5a,6,7,8,9-hexahydro-4-oxa-3,9a,10,12-tetraazabenzo[4,5]cyclohepta[1,2,3-de]naphthalen-8-ol], inhibition was half-maximal at 15 nM (IC50).

In the case of `N#Cc1c(N)sc2c(F)ccc(-c3cc4c5c(nc(OC[C@@]67CCCN6C[C@H](F)C7)nc5c3F)N3CCC[C@@H]3CCO4)c12` [Example 5, 2-amino-7-fluoro-4-((R)-8-fluoro-6-(((2R,7aS)-2-fluorotetrahydro-1H-pyrrolizin-7a(5H)-yl)methoxy)-1,2,3,12,13,13a-hexahydropyrrolo[1′,2′:5,6][1,5]oxazocino[4,3,2-de]quinazolin-9-yl)benzo[b]thiophene-3-carbonitrile], it took 668 nM to reach half-maximal inhibition (IC50).

`C#Cc1c(F)ccc2cc(O)cc(-c3cc4c5c(nc(OC[C@@]67CCCN6C[C@H](F)C7)nc5c3F)N3CC(F)(F)C[C@H]3CO4)c12` [Example 4, 5-ethynyl-6-fluoro-4-((S)-2,2,8-trifluoro-6-(((2R,7aS)-2-fluorotetrahydro-1H-pyrrolizin-7a(5H)-yl)methoxy)-2,3,12,12a-tetrahydro-1H-pyrrolo[2′,1′:3,4][1,4]oxazepino[5,6,7-de]quinazolin-9-yl)naphthalen-2-ol] yielded an IC50 of 658 nM.

`Nc1cc(Cl)c(C(F)(F)F)c(-c2nc3c4c(nc(OC[C@@]56CCCN5C[C@H](F)C6)nc4c2F)N2CC[C@@H]2CCO3)c1` [Example 23, 3-chloro-5-((R)-6-fluoro-4-(((2R,7aS)-2-fluorotetrahydro-1H-pyrrolizin-7a(5H)-yl)methoxy)-1,10,11,11a-tetrahydro-2H-9-oxa-2a,3,5,8-tetraazacyclobuta[4,5]cycloocta[1,2,3-de]naphthalen-7-yl)-4-(trifluoromethyl)aniline] had an IC50 of 73 nM.
